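Test compounds were applied to cells in 96-well plates for 48 hours at 5 doses. GI50: concentration for 50% inhibition of growth.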 Active and inactive are the calls of the source. Rule as the data show it: active = GI50 up to about 1.1 µM and inactive = higher.
What was measured:
Experiment in all cases: NCI tumour cell line growth inhibition, 48 h
[1] = tested on: SK-OV-3
[2] = tested on: RXF 393
[3] = tested on: SK-MEL-2
[4] = tested on: MDA-N
[5] = tested on: NCI-H23
[6] = tested on: Malme-3M
[7] = tested on: SN12C
[8] = tested on: NCI/ADR-RES
[9] = tested on: COLO 205
[10] = tested on: U-251
[11] = tested on: EKVX
[12] = tested on: SNB-75
[13] = tested on: K562
[14] = tested on: SNB-19
[15] = tested on: SW-620
[16] = tested on: BT-549
[17] = tested on: MOLT-4
[18] = tested on: SK-MEL-28
[19] = tested on: HT-29
[20] = tested on: T47D

SMILES | GI50 [1] | GI50 [2] | GI50 [3] | GI50 [4] | GI50 [5] | GI50 [6] | GI50 [7] | GI50 [8] | GI50 [9] | GI50 [10] | GI50 [11] | GI50 [12] | GI50 [13] | GI50 [14] | GI50 [15] | GI50 [16] | GI50 [17] | GI50 [18] | GI50 [19] | GI50 [20]
CC(C)(C)OC(=O)[C@@H]1CCC(=S)N1Cc1ccccc1 | > 100 µM (inactive) | > 100 µM (inactive) | > 100 µM (inactive) | > 100 µM (inactive) | 70.1 µM (inactive) | > 100 µM (inactive) | > 100 µM (inactive) | > 100 µM (inactive) | > 100 µM (inactive) | > 100 µM (inactive) | 92 µM (inactive) | 37.8 µM (inactive) | > 100 µM (inactive) | > 100 µM (inactive) | > 100 µM (inactive) | 71.8 µM (inactive) | 93.1 µM (inactive) | > 100 µM (inactive) |  | 
Nc1cc(OCc2ccccc2)c(OCc2ccccc2)cc1C=O | 52.5 µM (inactive) |  | 28.2 µM (inactive) | 39.5 µM (inactive) | > 10 µM (inactive) |  | 28.1 µM (inactive) | 33 µM (inactive) | 24.7 µM (inactive) | 28.4 µM (inactive) | 24.4 µM (inactive) | 52.8 µM (inactive) | 44.4 µM (inactive) | 32.9 µM (inactive) | 46.2 µM (inactive) | 14.5 µM (inactive) | 18.6 µM (inactive) | 42.1 µM (inactive) | 22.9 µM (inactive) | 21.1 µM (inactive)
CCOC(=O)Cc1csc(N/N=C2\C(=O)Nc3ccccc32)n1 | 49.4 µM (inactive) | 87.1 µM (inactive) | 52.6 µM (inactive) | 41.8 µM (inactive) | 32.6 µM (inactive) |  | > 100 µM (inactive) | 31.8 µM (inactive) | 28.6 µM (inactive) | 42.4 µM (inactive) | 32.1 µM (inactive) | 28.2 µM (inactive) | 40.4 µM (inactive) | 26.9 µM (inactive) | 48.9 µM (inactive) | 32.7 µM (inactive) | 29 µM (inactive) |  | 42.6 µM (inactive) | 27.7 µM (inactive)
COc1ccc(-n2cnc3c(NCC(=O)O)ncnc32)cc1 | > 100 µM (inactive) |  | > 100 µM (inactive) | > 100 µM (inactive) | > 100 µM (inactive) | 54.1 µM (inactive) | > 100 µM (inactive) | > 100 µM (inactive) | > 100 µM (inactive) | > 100 µM (inactive) | > 100 µM (inactive) | > 100 µM (inactive) | > 100 µM (inactive) | > 100 µM (inactive) | > 100 µM (inactive) | > 100 µM (inactive) | > 100 µM (inactive) | > 100 µM (inactive) | > 100 µM (inactive) | > 100 µM (inactive)
Cc1ccnc2nc3[nH]c4ccccc4c3cc12 |  | > 100 µM (inactive) | > 100 µM (inactive) | > 100 µM (inactive) | > 100 µM (inactive) |  | > 100 µM (inactive) | > 100 µM (inactive) | > 100 µM (inactive) | 39.1 µM (inactive) | > 100 µM (inactive) | 22 µM (inactive) | > 100 µM (inactive) |  | > 100 µM (inactive) | 48 µM (inactive) | > 100 µM (inactive) |  | > 100 µM (inactive) | > 100 µM (inactive)
COc1cc(NS(C)(=O)=O)ccc1Nc1ccnc2ccc3[nH]ccc3c12 |  |  | 16.7 µM (inactive) | 16.2 µM (inactive) | 13.7 µM (inactive) | 14.1 µM (inactive) | 14.4 µM (inactive) | > 100 µM (inactive) | 17 µM (inactive) | 14 µM (inactive) | 19.4 µM (inactive) |  | 10.9 µM (inactive) | 15.5 µM (inactive) | 13.3 µM (inactive) | 14.6 µM (inactive) |  | 16.6 µM (inactive) | 16.8 µM (inactive) | 14.9 µM (inactive)
CCc1n[nH]c(=O)n1-c1ccncc1 |  | > 100 µM (inactive) |  | > 100 µM (inactive) | > 100 µM (inactive) | > 100 µM (inactive) | > 100 µM (inactive) | > 100 µM (inactive) | > 100 µM (inactive) | > 100 µM (inactive) | > 100 µM (inactive) | > 100 µM (inactive) | > 100 µM (inactive) | > 100 µM (inactive) | > 100 µM (inactive) | > 100 µM (inactive) | > 100 µM (inactive) | > 100 µM (inactive) | > 100 µM (inactive) | > 100 µM (inactive)
CC1(C)C/N=C/C(C)(OCc2ccccc2)C(=O)NC(C)(C)C/N=C/C(C)(OCc2ccccc2)C(=O)N1 (configuration not stated) | > 10 µM (inactive) | > 10 µM (inactive) | > 10 µM (inactive) | > 10 µM (inactive) | > 10 µM (inactive) |  | > 10 µM (inactive) |  |  | > 10 µM (inactive) | > 10 µM (inactive) | 3.82 µM (inactive) | > 10 µM (inactive) | > 10 µM (inactive) | > 10 µM (inactive) | > 10 µM (inactive) | > 10 µM (inactive) | > 10 µM (inactive) | > 10 µM (inactive) | > 10 µM (inactive)
CN(C)c1ccc(/C=C2\C[C@H]3[C@@H]4CCc5cc(OCCN6CCCC6)ccc5[C@H]4CC[C@]3(C)C2=O)cc1 | 1.87 µM (inactive) | 1.57 µM (inactive) | 1.98 µM (inactive) | 1.85 µM (inactive) | 3.25 µM (inactive) |  | 1.62 µM (inactive) | 1.91 µM (inactive) | 1.52 µM (inactive) |  | 2.2 µM (inactive) | 1.71 µM (inactive) | 1.08 µM (active) | 1.89 µM (inactive) |  | 3.39 µM (inactive) | 1.31 µM (inactive) | 1.53 µM (inactive) | 0.288 µM (active) | 1.77 µM (inactive)
Cc1ccc(N(C)S(=O)(=O)c2ccc([N+](=O)[O-])cc2)cc1 | > 100 µM (inactive) | > 100 µM (inactive) | > 100 µM (inactive) | > 100 µM (inactive) |  | 38.2 µM (inactive) | > 100 µM (inactive) | 97.9 µM (inactive) | > 100 µM (inactive) | > 100 µM (inactive) | > 100 µM (inactive) | > 100 µM (inactive) | 41 µM (inactive) | > 100 µM (inactive) | > 100 µM (inactive) | > 100 µM (inactive) | 34.9 µM (inactive) | > 100 µM (inactive) | 74.6 µM (inactive) | 
CC(C)(O)C1OCC(C2CCC3(C)C4=CCC5C(C)(C)C(O)CCC5(C)C4CCC23C)CC1O (configuration not stated) | 15.8 µM (inactive) |  | 22.8 µM (inactive) | 16.6 µM (inactive) | 23.2 µM (inactive) | 18.5 µM (inactive) | 14.4 µM (inactive) | 12.6 µM (inactive) | 15 µM (inactive) | 14.4 µM (inactive) | 17.2 µM (inactive) | 16.9 µM (inactive) | 4.44 µM (inactive) | 16.4 µM (inactive) | 15.2 µM (inactive) | 11.1 µM (inactive) | 10.8 µM (inactive) | 15.8 µM (inactive) | 13.1 µM (inactive) | 13.7 µM (inactive)
COc1ccc2c(c1)/C(=C\c1c(C)nc3n1CCS3)C(=O)N2 | 19.7 µM (inactive) | 40.7 µM (inactive) | 29 µM (inactive) | 3.29 µM (inactive) | 24.5 µM (inactive) |  | 26.5 µM (inactive) | 26.8 µM (inactive) | 9.42 µM (inactive) | 22.1 µM (inactive) | 34.5 µM (inactive) | 28.1 µM (inactive) | 10.3 µM (inactive) | 33.8 µM (inactive) | 9.79 µM (inactive) | 21.1 µM (inactive) | 32.4 µM (inactive) | 46.8 µM (inactive) | 12.6 µM (inactive) | 27.7 µM (inactive)
O=c1cc(N2CCOCC2)[nH]c(=O)n1-c1cccc(C(F)(F)F)c1 | > 100 µM (inactive) |  | 43.3 µM (inactive) | > 100 µM (inactive) | > 100 µM (inactive) | > 100 µM (inactive) | > 100 µM (inactive) | > 100 µM (inactive) | > 100 µM (inactive) | 64.7 µM (inactive) | > 100 µM (inactive) | > 100 µM (inactive) | > 100 µM (inactive) |  | > 100 µM (inactive) | > 100 µM (inactive) | > 100 µM (inactive) | > 100 µM (inactive) | > 100 µM (inactive) | > 100 µM (inactive)
[N-]=[N+]=NC1=NNC2(C(=O)N1)c1ccccc1-c1ccccc12 | > 100 µM (inactive) | > 100 µM (inactive) | > 100 µM (inactive) | > 100 µM (inactive) | > 100 µM (inactive) | 18.1 µM (inactive) | > 100 µM (inactive) | > 100 µM (inactive) | > 100 µM (inactive) | > 100 µM (inactive) | > 100 µM (inactive) | > 100 µM (inactive) | > 100 µM (inactive) | > 100 µM (inactive) | > 100 µM (inactive) | > 100 µM (inactive) |  | > 100 µM (inactive) | > 100 µM (inactive) | 
CCCCCCCCCCCCCCCCOCC(CC(F)(F)P(=O)(O)O)OC(C)=O (configuration not stated) | > 50 µM (inactive) |  | > 50 µM (inactive) | > 50 µM (inactive) | > 50 µM (inactive) | > 50 µM (inactive) | > 50 µM (inactive) | > 50 µM (inactive) | > 50 µM (inactive) | > 50 µM (inactive) | > 50 µM (inactive) | > 50 µM (inactive) | > 50 µM (inactive) | > 50 µM (inactive) | > 50 µM (inactive) | > 50 µM (inactive) | > 50 µM (inactive) | > 50 µM (inactive) | > 50 µM (inactive) | 

Source: ChEMBL document CHEMBL1201862, “PubChem BioAssay data set” (2004)
